Reference: patent publication US20250295606A1, “BIOSOLUBLE POLYMER OR PARTICLE FOR DELIVERY OF AN ACTIVE AGENT AND A METHOD FOR THE PRODUCTION” (Tijani Holding B.V., priority 2021, published 2025)

What was measured:
pig = test system: pig
Excerpt: For sublingual (s.l.) treatment it is necessary to anesthetize the animals as to allow the application of the insulin complexes onto the sublingual mucosa, but long-term anesthesia is undesirable as it may affect insulin/glucose metabolism.

[1] = test system: diabetic Göttingen minipigs; assay: Sublingual SLIM particles vs s.c. insulin, blood glucose in diabetic Göttingen minipigs; assay type: in vivo; conditions: Minipig 2, different days; SLIM-AF5 15 IU sublingual, RHI 10 IU subcutaneous; 2H30, after first 10 min
Excerpt: Testing the sublingual application of SLIM particles loaded with insulin in normoglycemic and STZ diabetic […] in a chronic in vivo study.
The purpose of this chronic, large animal in vivo study was to test the effective penetration of insulin containing particles through the sublingual mucosa, compare the effect with the subcutaneously applied human recombinant, measure the blood glucose changes and analyses the plasma insulin levels. Domestic pigs were also included in the study to compare the glucose lowering effect of insulin-loaded particles in the Göttingen minipigs and domestic pigs. […]
In this study, we first recorded the effect of s.c. application of human recombinant insulin as reference compounds and s.c. and s.l. applications of micro-compounds. […] The glucose levels of the pigs were followed and monitored for at least 3 days. […]
Corresponding to Example 20, the efficacy of SLIM particles was compared to subcutaneous injection of commercial recombinant human insulin in the same diabetic Göttingen minipig (Minipig 2) on different days. First day the animal received SLIM-AF5 (AF, 15 IU) particles sublingually and the second day was administered Recombinant Human Insulin (RHI, 10 IU) subcutaneously and the BG levels were monitored for 2H30 and compared (FIG. 22).

[2] = Plasma insulin level in diabetic Göttingen minipigs; assay type: in vivo; conditions: diabetic Göttingen minipig, subcutaneous injection
Excerpt: The purpose of this chronic, large animal in vivo study was to test the effective penetration of insulin containing particles through the sublingual mucosa, compare the effect with the subcutaneously applied human recombinant, measure the blood glucose changes and analyses the plasma insulin levels. Domestic pigs were also included in the study to compare the glucose lowering effect of insulin-loaded particles in the Göttingen minipigs and domestic pigs. The test compounds were applied s.l. and s.c. to the pigs being under the anesthetic propofol (Amnesia).
On the first day of acclimatization a central venous catheter was installed (Certofix®Mono B-Braun V430) for each domestic pig and Göttingen minipig. The pigs were fasted overnight before the day of operation, but supplied with water ad libitum. The animals were pre-anesthetized intramuscularly with Calypsol/Xilazine (2/1.8 mL, based on body weight) injections in the stalls to avoid stress, and were transported to the operating room. The anesthesia was maintained using isoflurane inhalation narcosis (2-2.5%) with oxygen. […]. The venous catheters were introduced by aseptic technique into the left external jugular vein. The end of the catheter was pulled subcutaneously to the back part of the head between the ears, and fixed by sutures, in two layers. […]

Row | Compound | time until the jaw was relaxed (pig; 5 mg/kg, 20 mg/mL i.v.) | time until the pig was laying down (pig; 5 mg/kg, 20 mg/mL i.v.) | blood glucose measurements under anesthesia (pig; 20 minutes before, then 5, 10, 15 and 30 minutes after anesthesia) | BG level course [1] | maxima of plasma insulin ([2]; 2 IU) | maxima of plasma insulin ([2]; 10 IU)
1 | CC(C)c1cccc(C(C)C)c1O [Propofol] | 60 s | 30 s | in the normal range | – | – | –
2 | recombinant human insulin: commercial recombinant human insulin, subcutaneous reference | – | – | – | continue to decline linearly with the time but with a slightly different speed and slop | only one insulin maximum in plasma | only one maximum peak of plasma insulin
